Assay results taken from the NIST ThermoML archive (doi:10.1016/j.jct.2013.09.039).

Test: xn = mol fraction of the nth substance listed
Conditions: Liquid, Vibrating tube method

Cc1ccc(C)cc1 [1,4-dimethylbenzene] + COC(=O)OC
mass density [kg/m3]
Conditions	x2 = 0.0432	x2 = 0.195	x2 = 0.3968	x2 = 0.4933	x2 = 0.5296	x2 = 0.5993	x2 = 0.7034	x2 = 0.8023	x2 = 0.8921	x2 = 0.9478
288.15 K, 100 kPa	871.8	894.2	924.2	944.9	953.3	968.4	992.3	1010.6	1038.1	1052.9
288.15 K, 5000 kPa	875.5	897.8	931.9	950.4	957.3	972.4	996.2	–	1042.5	1057.2
288.15 K, 10000 kPa	879.1	901.3	935.7	954.1	961.2	976.3	1000.3	–	1046.6	1061.4
288.15 K, 20000 kPa	885.4	907.8	942.5	961.4	968.3	983.7	1007.8	–	1054.5	1069.4
288.15 K, 30000 kPa	891.3	914	949	967.9	974.9	990.5	1014.7	–	1061.5	1076.7
288.15 K, 40000 kPa	897.1	920.1	955.3	974.3	980.9	997.1	1021.4	–	1068.7	1083.8
298.15 K, 100 kPa	863	884.5	917.8	935.8	942.5	957.3	980.5	998.4	1025.5	1040
298.15 K, 5000 kPa	867.3	888.3	922.5	940.6	947.1	962	985.4	1003.4	1030.6	1044.9
298.15 K, 10000 kPa	870.4	892.1	925.8	944	950.7	965.7	989.1	–	1034.7	1049
298.15 K, 20000 kPa	877.1	899.2	933.2	951.6	958.2	973.4	997	–	1042.9	1057.5
298.15 K, 30000 kPa	883.4	905.5	939.9	958.7	965.4	980.5	1004.4	1022.7	1050.6	1065
298.15 K, 40000 kPa	889.1	911.7	946.5	965.1	972	987.3	1011.2	1030.1	1057.9	1072.7
308.15 K, 100 kPa	854.3	875.2	907.6	925.2	931.7	946.3	969	–	1013.1	1027.2
308.15 K, 5000 kPa	858.1	879.3	912.1	929.7	936.2	950.8	973.7	–	1018	1032.1
308.15 K, 10000 kPa	862	883.3	916.2	934.1	940.4	955.2	978.2	–	1022.7	1036.8
308.15 K, 20000 kPa	869.1	890.7	924	941.8	948.4	958.3	986.4	1004.4	1031.5	1045.7
308.15 K, 30000 kPa	875.7	897.5	931.2	949.4	956	970.9	994.2	1012.2	1039.7	1054
308.15 K, 40000 kPa	881.7	904	937.9	956.3	963	978.1	1001.5	1019.8	1047.4	1061.7
